Source: US11382956B2, “Amylin analogues” (Zealand Pharma A/S, priority 2016, dated 2022)
Numbered stars: 1 amine (or outer) side, 2 acyl side, 3 side chain; on linkers, the order of the positions; unused ones are H or OH. Bridge positions count the residues as written; N and C are the ends. Square brackets hold non-standard residues; d marks the D form. Peptide text beside a SMILES is read from it. * marks the point of attachment. C20 diacid = O=C(O)CCCCCCCCCCCCCCCCCCC(=O)*; γGlu = O=C(O)[C@H](CCC(=O)[*:2])N[*:1]; Hyp = O=C(O)[C@@H]1C[C@@H](O)CN1; NMeI = CC[C@H](C)[C@H](NC)C(=O)O; Aad = N[C@@H](CCCC(=O)O)C(=O)O; Orn = NCCC[C@H](N)C(=O)O; Sar = CNCC(=O)O

Key:
[1] = target: T1, recombinant human calcitonin receptor (hCT-R) (Homo sapiens, UniProt P30988); test: hCT-R cAMP assay (AlphaScreen) in 1321N1 cells; assay type: cell-based; settings: cAMP formation, 45 min stimulation
T1 construct: host or cells: human astrocytoma cell line 1321N1
T1 sequence (P30988 25-474): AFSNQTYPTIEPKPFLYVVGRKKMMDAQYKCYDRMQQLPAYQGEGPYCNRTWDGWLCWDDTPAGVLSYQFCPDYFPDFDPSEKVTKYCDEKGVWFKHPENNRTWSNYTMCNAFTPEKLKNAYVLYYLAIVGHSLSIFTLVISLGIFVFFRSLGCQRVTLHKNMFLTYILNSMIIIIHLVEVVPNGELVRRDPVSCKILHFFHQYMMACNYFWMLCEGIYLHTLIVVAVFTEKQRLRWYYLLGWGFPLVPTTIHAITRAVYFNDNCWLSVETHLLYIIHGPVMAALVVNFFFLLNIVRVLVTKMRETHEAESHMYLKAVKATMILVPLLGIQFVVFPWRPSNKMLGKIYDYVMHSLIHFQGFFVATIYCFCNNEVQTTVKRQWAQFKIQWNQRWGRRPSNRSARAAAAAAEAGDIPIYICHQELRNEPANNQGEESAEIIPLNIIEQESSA
Procedure, shortened: (§1)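 1321N1 astrocytoma cells expressing recombinant human calcitonin receptor alone or with RAMP3 (AMY3) stimulated 45 min at room temperature with peptide in IBMX-containing buffer. cAMP quantified by AlphaScreen after 1 h bead incubation; EC50 fitted from at least 7 concentrations.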

[2] = target: T2, recombinant human amylin 3 receptor (hAMYR3) (Homo sapiens, UniProt O60896+P30988); test: hAMYR3 cAMP assay (AlphaScreen) in 1321N1 cells; assay type: cell-based; settings: cAMP formation, 45 min stimulation
T2 construct: host or cells: human astrocytoma cell line 1321N1
T2 sequence (P30988 25-474): T1 sequence (P30988 25-474)
T2 sequence (O60896 24-148 partner): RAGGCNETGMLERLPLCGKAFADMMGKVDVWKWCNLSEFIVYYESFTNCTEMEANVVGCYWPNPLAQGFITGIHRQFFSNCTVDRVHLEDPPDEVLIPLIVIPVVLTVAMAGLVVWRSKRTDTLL
Procedure, shortened: as §1

[3] = Assessment of chemical stability in 40 mM buffers at 40° C. (RP-HPLC); assay type: physicochemical; settings: 1 mg/mL; for % degradation after 72 h at 40° C. pH4 acetate: acetate buffer pH 4, 72 h; for % degradation after 72 h at 40° C. pH6 phosphate: phosphate buffer pH 6, 72 h; for % degradation after 72 h at 40° C. pH7 phosphate: phosphate buffer pH 7, 72 h
Procedure, shortened: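 Peptides at 1 mg/mL in 40 mM acetate pH 4 or phosphate pH 6 and 7 were held at 40° C for 3 and 14 days. Main-peak area-% by C8 RP-HPLC, UV 220 nm; % degradation = change in main-peak area-% versus t=0.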

[4] = Assessment of physical stability: fibril formation by Thioflavin T fluorescence; assay type: physicochemical; set-up: key: FND = fibrillation not detected; FD = fibrillation detected; settings: 1 mg/mL peptide; for Fibrillation (in buffer) pH4 acetate: 50 mM acetate buffer pH 4.0, 96 hours at 40° C.; for Fibrillation (in buffer) pH7 histidine: 50 mM histidine buffer pH 7.0, 96 hours at 40° C.; for Fibrillation (in buffer) pH7 phosphate: 50 mM phosphate buffer pH 7.0, 96 hours at 40° C.
Description: Solutions containing (i) 1 mg/mL of test peptide, 40 μM ThT and 50 mM phosphate (Ph) buffer (pH 7.0), (ii) 1 mg/mL of test peptide, 40 μM ThT and 50 mM histidine (His) buffer (pH 7.0), and (iii) 1 mg/mL of test peptide, 40 μM ThT and 50 mM acetate (Ac) buffer (pH 4.0), were loaded in a 96-well black fluorescence plate (clear bottom) in triplicate. Data were collected at fixed intervals of 10 min, each preceded by 300 s of automixing (agitation), over a period of 96 hours at 40° C. Physical stability is determined by measuring the fluorescence intensity over time. A significant increase in intensity is rated as fibrillation detected (FD).

EC50 [1] | EC50 [2] | % degradation after 72 h at 40° C. pH4 acetate [3] | % degradation after 72 h at 40° C. pH6 phosphate [3] | % degradation after 72 h at 40° C. pH7 phosphate [3] | Fibrillation (in buffer) pH4 acetate [4] | Fibrillation (in buffer) pH7 histidine [4] | Fibrillation (in buffer) pH7 phosphate [4] | % degradation after 14 days at 40° C. pH4 acetate ([3]; acetate buffer pH 4, 14 days) | % degradation after 14 days at 40° C. pH6 phosphate ([3]; phosphate buffer pH 6, 14 days) | % degradation after 14 days at 40° C. pH7 phosphate ([3]; phosphate buffer pH 7, 14 days) | Structure (SMILES)
0.037 nM | 0.01 nM | <1% | <1% | <1% | FND | FND | FND |  |  |  | CC[C@H](C)[C@@H](C(=O)N1CCC[C@H]1C(=O)N[C@@H](CO)C(=O)N[C@@H](CO)C(=O)N[C@H](C(=O)N[C@@H](CCC(=O)O)C(=O)N[C@H](C(=O)NCC(=O)N[C@@H](CO)C(=O)N[C@@H](CC(N)=O)C(=O)N[C@H](C(=O)N1C[C@H](O)C[C@H]1C(N)=O)[C@@H](C)O)C(C)C)[C@@H](C)O)N(C)C(=O)[C@H](C)NC(=O)CN(C)C(=O)[C@H](Cc1ccccc1)NC(=O)[C@H](CO)NC(=O)[C@H](CO)NC(=O)[C@H](CCCNC(=N)N)NC(=O)[C@H](CCC(N)=O)NC(=O)[C@H](CC(C)C)NC(=O)[C@H](Cc1ccccc1)NC(=O)[C@H](CCCC(=O)O)NC(=O)[C@H](C)NC(=O)[C@H](CC(C)C)NC(=O)[C@H](CCCNC(=N)N)NC(=O)[C@H](CCC(=O)O)NC(=O)[C@@H](NC(=O)[C@H](C)NC(=O)[C@@H]1CCCNC(=O)C[C@H](NC(=O)[C@H](CCCNC(=N)N)NC(=O)CC[C@H](NC(=O)CCCCCCCCCCCCCCCCCCC(=O)O)C(=O)O)C(=O)NCC(=O)N[C@@H]([C@@H](C)O)C(=O)N[C@@H](C)C(=O)N[C@@H]([C@@H](C)O)C(=O)N1)[C@@H](C)O [Compound 21, [19CD]-isoGlu-RD()GTAT-Orn()-ATERLA-Aad-FLQRSSF-Gly(Me)-A-Ile(Me)-PSSTEVGSNT-Hyp-NH2] ({C20 diacid-γGlu}-RDGTAT[Orn]ATERLA[Aad]FLQRSSF[Sar]A[NMeI]PSSTEVGSNT[Hyp]-NH2; lactam 2-7)
0.844 nM | 0.336 nM |  |  | <1% | FND | FND | FND |  |  |  | CC[C@H](C)[C@@H](C(=O)N[C@@H](CC(C)C)C(=O)N[C@@H](CO)C(=O)N[C@@H](CO)C(=O)N[C@H](C(=O)N[C@@H](CCC(=O)O)C(=O)N[C@H](C(=O)NCC(=O)N[C@@H](CO)C(=O)N[C@@H](CC(N)=O)C(=O)N[C@H](C(=O)N1C[C@H](O)C[C@H]1C(N)=O)[C@@H](C)O)C(C)C)[C@@H](C)O)N(C)C(=O)[C@H](C)NC(=O)CN(C)C(=O)[C@H](Cc1ccccc1)NC(=O)[C@@H](NC(=O)[C@H](C)NC(=O)[C@H](CCCNC(=N)N)NC(=O)[C@H](CCC(N)=O)NC(=O)[C@H](CC(C)C)NC(=O)[C@H](Cc1ccccc1)NC(=O)[C@H](CCCC(=O)O)NC(=O)[C@H](C)NC(=O)[C@H](CC(C)C)NC(=O)[C@H](CCCNC(=N)N)NC(=O)[C@H](CCC(=O)O)NC(=O)[C@@H](NC(=O)[C@H](C)NC(=O)[C@@H]1CCCNC(=O)C[C@H](NC(=O)[C@H](CCCNC(=N)N)NC(=O)CC[C@H](NC(=O)CCCCCCCCCCCCCCCCCCC(=O)O)C(=O)O)C(=O)NCC(=O)N[C@@H]([C@@H](C)O)C(=O)N[C@@H](C)C(=O)N[C@@H]([C@@H](C)O)C(=O)N1)[C@@H](C)O)[C@@H](C)O [Compound 25, [19CD]-isoGlu-RD()GTAT-Orn()-ATERLA-Aad-FLQRATF-Gly(Me)-A-Ile(Me)-LSSTEVGSNT-Hyp-NH2] ({C20 diacid-γGlu}-RDGTAT[Orn]ATERLA[Aad]FLQRATF[Sar]A[NMeI]LSSTEVGSNT[Hyp]-NH2; lactam 2-7)
0.521 nM | 0.325 nM | <1% | <1% | 1.7% | FND | FND | FND |  |  |  | CC[C@H](C)[C@@H](C(=O)N[C@@H](CC(C)C)C(=O)N[C@@H](CO)C(=O)N[C@@H](CO)C(=O)N[C@H](C(=O)N[C@@H](CCC(=O)O)C(=O)N[C@H](C(=O)NCC(=O)N[C@@H](CO)C(=O)N[C@@H](CC(N)=O)C(=O)N[C@H](C(=O)N1C[C@H](O)C[C@H]1C(N)=O)[C@@H](C)O)C(C)C)[C@@H](C)O)N(C)C(=O)[C@H](C)NC(=O)CN(C)C(=O)[C@H](Cc1ccccc1)NC(=O)[C@@H](NC(=O)CNC(=O)[C@H](CCCNC(=N)N)NC(=O)[C@H](CCC(N)=O)NC(=O)[C@H](CC(C)C)NC(=O)[C@H](Cc1ccccc1)NC(=O)[C@H](CCCC(=O)O)NC(=O)[C@H](C)NC(=O)[C@H](CC(C)C)NC(=O)[C@H](CCCNC(=N)N)NC(=O)[C@H](CCC(=O)O)NC(=O)[C@@H](NC(=O)[C@H](C)NC(=O)[C@@H]1CCCNC(=O)C[C@H](NC(=O)[C@H](CCCNC(=N)N)NC(=O)CC[C@H](NC(=O)CCCCCCCCCCCCCCCCCCC(=O)O)C(=O)O)C(=O)NCC(=O)N[C@@H]([C@@H](C)O)C(=O)N[C@@H](C)C(=O)N[C@@H]([C@@H](C)O)C(=O)N1)[C@@H](C)O)[C@@H](C)O [Compound 27, [19CD]-isoGlu-RD()GTAT-Orn()-ATERLA-Aad-FLQRGTF-Gly(Me)-A-Ile(Me)-LSSTEVGSNT-Hyp-NH2] ({C20 diacid-γGlu}-RDGTAT[Orn]ATERLA[Aad]FLQRGTF[Sar]A[NMeI]LSSTEVGSNT[Hyp]-NH2; lactam 2-7)
0.006 nM | 0.005 nM | 1.3% | <1% | 2.2% | FD | FND | FND | <1% | <1% | <1% | CC[C@H](C)[C@@H](C(=O)N[C@@H](CC(C)C)C(=O)N[C@@H](CO)C(=O)N[C@@H](CO)C(=O)N[C@H](C(=O)N[C@@H](CCC(=O)O)C(=O)N[C@H](C(=O)NCC(=O)N[C@@H](CO)C(=O)N[C@@H](CC(N)=O)C(=O)N[C@H](C(=O)N1C[C@H](O)C[C@H]1C(N)=O)[C@@H](C)O)C(C)C)[C@@H](C)O)N(C)C(=O)[C@H](C)NC(=O)CN(C)C(=O)[C@H](Cc1ccccc1)NC(=O)CNC(=O)CNC(=O)[C@H](CCCNC(=N)N)NC(=O)[C@H](CCC(N)=O)NC(=O)[C@H](CC(C)C)NC(=O)[C@H](Cc1ccccc1)NC(=O)[C@H](CCCC(=O)O)NC(=O)[C@H](C)NC(=O)[C@H](CC(C)C)NC(=O)[C@H](CCCNC(=N)N)NC(=O)[C@H](CCC(=O)O)NC(=O)[C@@H](NC(=O)[C@H](C)NC(=O)[C@@H]1CCCCNC(=O)C[C@H](NC(=O)[C@H](CCCNC(=N)N)NC(=O)CC[C@H](NC(=O)CCCCCCCCCCCCCCCCCCC(=O)O)C(=O)O)C(=O)NCC(=O)N[C@@H]([C@@H](C)O)C(=O)N[C@@H](C)C(=O)N[C@@H]([C@@H](C)O)C(=O)N1)[C@@H](C)O [Compound 32, [19CD]-isoGlu-RD()GTATK()ATERLA-Aad-FLQRGGF-Gly(Me)-A-Ile(Me)-LSSTEVGSNT-Hyp-NH2] ({C20 diacid-γGlu}-RDGTATKATERLA[Aad]FLQRGGF[Sar]A[NMeI]LSSTEVGSNT[Hyp]-NH2; lactam 2-7)
